Test results: article PMC10757017 (Heliyon, 2023)

Key:
α-glucosidase [1] = target: T1, α-glucosidase (Saccharomyces cerevisiae, UniProt P53341); assay: Kinetic studies; type: biochemical; conditions: for type of inhibition: Lineweaver-Burk plots, Km increases, Vmax constant
α-glucosidase [2] = target: T1, α-glucosidase; assay: α-Glucosidase inhibitory assay; type: biochemical

T1 sequence (P53341 whole entry): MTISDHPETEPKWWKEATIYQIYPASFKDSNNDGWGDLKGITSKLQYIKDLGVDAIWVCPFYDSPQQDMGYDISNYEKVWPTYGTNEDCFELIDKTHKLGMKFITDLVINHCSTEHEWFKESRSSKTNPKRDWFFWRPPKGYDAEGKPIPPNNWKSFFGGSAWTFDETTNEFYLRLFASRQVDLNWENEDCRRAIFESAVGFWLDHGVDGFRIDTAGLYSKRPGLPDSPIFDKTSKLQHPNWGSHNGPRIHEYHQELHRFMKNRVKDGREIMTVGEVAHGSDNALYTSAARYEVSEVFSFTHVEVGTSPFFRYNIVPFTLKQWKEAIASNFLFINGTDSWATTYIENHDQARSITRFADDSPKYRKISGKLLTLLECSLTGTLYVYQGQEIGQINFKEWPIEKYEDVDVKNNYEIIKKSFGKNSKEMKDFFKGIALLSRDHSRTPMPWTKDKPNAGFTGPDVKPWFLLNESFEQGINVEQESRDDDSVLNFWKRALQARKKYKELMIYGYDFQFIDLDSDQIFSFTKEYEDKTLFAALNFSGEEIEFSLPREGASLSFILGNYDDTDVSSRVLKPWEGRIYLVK

SMILES | Ki (α-glucosidase [1]) [nM] | type of inhibition (α-glucosidase [1]) | IC50 (α-glucosidase [2]) [nM]
COc1cccc(C=NN=C(c2ccc(N(C)C)cc2)c2ccc(N(C)C)cc2)c1O [Compound 9, 2-{[bis-(4-dimethylamino-phenyl)-methylene]-hydrazonomethyl}-6-methoxy-phenol] | 3640 ± 12 | competitive | 280
CN(C)c1ccc(C(=NN=Cc2ccc(O)c(O)c2)c2ccc(N(C)C)cc2)cc1 [Compound 17, 4-{[bis-(4-dimethylamino-phenyl)-methylene]-hydrazonomethyl}-benzene-1,2-diol] | – | – | 350
CN(C)c1ccc(C(=NN=Cc2ccc(O)cc2)c2ccc(N(C)C)cc2)cc1 [Compound 26, 4-{[bis-(4-dimethylamino-phenyl)-methylene]-hydrazonomethyl}-phenol] | – | – | 820 ± 1120
CN(C)c1ccc(C(=NN=Cc2ccc(O)cc2O)c2ccc(N(C)C)cc2)cc1 [Compound 2, 4-{[bis-(4-dimethylamino-phenyl)-methylene]-hydrazonomethyl}-benzene-1,3-diol] | – | – | 680 ± 290
CN(C)c1ccc(C(=NN=Cc2cccc(C=O)c2)c2ccc(N(C)C)cc2)cc1 [Compound 15, 3-{[bis-(4-dimethylamino-phenyl)-methylene]-hydrazonomethyl}-benzaldehyde] | – | – | 490 ± 1430
CN(C)c1ccc(C(=NN=Cc2cccc(O)c2O)c2ccc(N(C)C)cc2)cc1 [Compound 4, 3-{[bis-(4-dimethylamino-phenyl)-methylene]-hydrazonomethyl}-benzene-1,2-diol] | – | – | 330
CN(C)c1ccc(C(=NN=Cc2cc([N+](=O)[O-])ccc2O)c2ccc(N(C)C)cc2)cc1 [Compound 8, 2-{[bis-(4-dimethylamino-phenyl)-methylene]-hydrazonomethyl}-4-nitro-phenol] | 2790 ± 11 | competitive | 280
